Patent US7655677B2, “Composition and method for controlling house insect pest” (priority 2002, dated 2010)

Experiments:
Format in all cases: in vivo
Reticulitermes speratus [1] = experiment: Test Example 4: treated filter paper in Petri dish, termite mortality after 25 days
Method: (§1) Mortality (%)=(Number of dead termite workers/15 termite workers)×100
(§2) Further, by the Colby's formula, the theoretical value (%) of mortality can be calculated. In a case where the actual mortality (%) is higher than the theoretical value (%), it can be said that the composition of the present invention has a synergistic effect for controlling the house insect pest.
A filter paper having a diameter of 80 mm was placed in a plastic Petri dish, and 1 ml of a pesticide solution having a predetermined concentration, was dropped thereon. After the treatment, the solvent was sufficiently evaporated, and then, 1 ml of distilled water was impregnated to the treated filter paper, whereupon 10 termite workers (Reticulitermes speratus) were released. The plastic Petri dish was placed in a container having wet cotton laid over the bottom, and the container was maintained at 25° C. for 25 days, whereupon the number of dead termites in the Petri dish was examined, and the mortality was calculated in the same manner as in Test Example 1.

Coptotermes formosanus [2] = experiment: Test Example 18: dust-coated termite workers mixed with non-treated termites, mortality with time; conditions: 0.5% dust; for Mortality TS (Termite soldiers): 10 non-treated soldiers; for Mortality TW (Termite workers): 15 treated + 10 non-treated workers
Method: 1 mg of each dust prepared in the same manner as in Test Example 17, was uniformly dispersed in a small size glass Petri dish with a diameter of 45 mm, and 15 termite workers (Coptotermes formosanus) were released and treated for dust coating. The treated termite workers were put into a cylindrical cup made of acrylic resin (i.e. a cup having a hole with a diameter of 10 mm formed in the bottom and having hard plaster (Dental Stone) set at the bottom in a thickness of 10 mm) containing a bait log, together with 10 non-treated termite workers and 10 non-treated termite soldiers. The cup was placed in a container having wet cotton laid over the bottom, and the container was maintained at room temperature of 25° C., whereby the number of dead termites in the cup was examined as the time passed, and the mortality was calculated by the following formula.
Mortality of termite workers (%)=(Number of dead termite workers/15 treated termite workers+10 non-treated termite workers)×100
Mortality of termite soldiers (%) (Number of dead termite soldiers/10 non-treated termite soldiers)×100

Reticulitermes speratus [3] = experiment: Test Example 21: treated sandy soil with weather resistance operation, termite mortality; conditions: 1000 ppm
Method: Sandy soil passed through a sieve of 20 mesh was dried at a temperature of 60° C. to a constant weight, and 12 g of the soil thus obtained, was packed into a cup having a diameter of 60 mm. 3 ml of a pesticide solution adjusted to a predetermined concentration, was added and sufficiently mixed, whereupon it was maintained in a constant temperature chamber of 40° C. for 95 days to carry out the weather resistance operation. After the weather resistance operation, 10 termite workers (Reticulitermes speratus) were released on this test soil. The cup was placed in a container having wet cotton laid over the bottom, and the container was maintained at room temperature of 25° C. 2 Days later and 6 days later after releasing the termites, the number of dead termites in the cup was examined, and the mortality was calculated.

Coptotermes formosanus [4] = experiment: Test Example 17: dust placed in ant trail, termite mortality with time; conditions: 0.5% dust, 10 mg in ant trail
Method: Soil was packed in a cylindrical connection section made of an acrylic resin connecting two cups made of acrylic resin (i.e. cups each having a hole with a diameter of 10 mm formed in the bottom and having hard plaster (Dental Stone) set at the bottom in a thickness of 10 mm), and 30 termite workers and 3 termite soldiers (Coptotermes formosanus) were released to let them form an ant trail. Then, at the center portion of the ant trail, 10 mg of a dust prepared by mixing in a mortar 0.5 part by weight of a sample compound and 99.5 parts by weight of cellulose powder, was placed. This test apparatus was put into a container having wet cotton laid over the bottom and kept at room temperature of 25° C., whereby the number of dead termites in the cup was examined as the time passed, and the mortality was calculated. Further, for the purpose of comparison, a similar test was carried out with respect to a dust containing 0.5% of fipronil (Terminal Dust, tradename, manufactured by Aventis Crop Science Shionogi K.K.).

Coptotermes formosanus [5] = experiment: Test Example 24: treated filter paper in Petri dish, termite mortality on 21st or 28th day; conditions: 21st day
Method: as §1, §2
A filter paper having a diameter of 80 mm was placed in a plastic Petri dish, and 1 ml of a pesticide solution having a predetermined concentration was dropped thereon, whereupon 10 termite workers (Coptotermes formosanus) were released, and a cover was put on the Petri dish. This plastic Petri dish was put in a container having wet cotton laid over the bottom and maintained at room temperature of 25° C. On 21 or 28th day after the treatment, the number of dead termites in the Petri dish was examined, and the mortality was calculated in the same manner as Test Example 1.

Lasius japonicus = experiment: Test Example 23: skim milk poison bait placed near ant nest, number of ants passing the gate per minute; conditions: 0.2% (W/W) bait, ants through the gate per minute
Excerpt: 2 g of this poison bait chemical was placed directly on an optional ground surface distanced by about 50 cm from the gate of the ant nest. Before, 2 days after, 3 days after and 5 days after placing the poison bait chemical, the number of ants going out and coming in through the gate per minute was examined.

[6] = weather resistance operation Negative, 2 Days later
[7] = weather resistance operation Positive (40° C. for 95 days), 2 Days later

How did the Mortality (Reticulitermes speratus [1]; II-2 5 ppm alone) turn out when `CC(=NN=C(Cc1ccc(C(F)(F)F)cc1)c1ccc(F)cc1)N(C)C` [Compound No. II-2, [4′-fluoro-2-(4-trifluoromethylphenyl)acetophenone]N′-[1-(dimethylamino)ethylidene]hydrazone] was run?
Its Mortality is 0%.

And the Mortality (Reticulitermes speratus [1]; II-2 10 ppm alone)?
The Mortality was 10%.

And the “Mortality TS (Termite soldiers)” value (Coptotermes formosanus [2]; 1 Day later)?
Its value is 0%.

And the “Mortality TW (Termite workers)” value (Coptotermes formosanus [2]; 1 Day later)?
The value was 0%.

And the “Mortality TS (Termite soldiers)” value (Coptotermes formosanus [2]; 8 Days later)?
Its value is 0%.

And the “Mortality TW (Termite workers)” value (Coptotermes formosanus [2]; 8 Days later)?
The value was 4%.

What about the “Mortality TS (Termite soldiers)” value (Coptotermes formosanus [2]; 15 Days later) of the same compound?
The value was 40%.

And the “Mortality TW (Termite workers)” value (Coptotermes formosanus [2]; 15 Days later)?
The value was 52%.

And the “Mortality TS (Termite soldiers)” value (Coptotermes formosanus [2]; 19 Days later)?
Its value is 100%.

What about the “Mortality TW (Termite workers)” value (Coptotermes formosanus [2]; 19 Days later) of the same compound?
Its value is 100%.

And the Mortality (Reticulitermes speratus [3]; [6])?
The Mortality was 50 (50) %.

And the abnormal ratio (Reticulitermes speratus [3]; [6])?
The abnormal ratio was 50 (50) %.

What about the Mortality (Reticulitermes speratus [3]; weather resistance operation Negative, 6 Days later) of the same compound?
Its Mortality is 100%.

What about the Mortality (Reticulitermes speratus [3]; [7]) of the same compound?
Its Mortality is 10%.

And the abnormal ratio (Reticulitermes speratus [3]; [7])?
The abnormal ratio was 15%.

What about the Mortality (Reticulitermes speratus [3]; weather resistance operation Positive (40° C. for 95 days), 6 Days later) of the same compound?
The Mortality was 95%.

What about the Mortality (Coptotermes formosanus [4]; 6 Days later) of the same compound?
The Mortality was 37%.

What about the Mortality (Coptotermes formosanus [4]; 11 Days later) of the same compound?
The Mortality was 100%.

And the Mortality (Coptotermes formosanus [4]; 15 Days later)?
The Mortality was 100%.

What about the Mortality (Coptotermes formosanus [5]; II-2 5 ppm alone) of the same compound?
The Mortality was 0%.

What about the Mortality (Coptotermes formosanus [5]; II-2 10 ppm alone) of the same compound?
The Mortality was 20%.

And the Mortality (Coptotermes formosanus [5]; II-2 20 ppm alone)?
The Mortality was 60%.

And the “Ants passing the nest gate per minute” value (Lasius japonicus; 2 Days later)?
The value was 11.

And the “Ants passing the nest gate per minute” value (Lasius japonicus; 3 Days later)?
Its value is 3.

What about the “Ants passing the nest gate per minute” value (Lasius japonicus; 5 Days later) of the same compound?
Its value is 0.

And the “Ants passing the nest gate per minute” value (Lasius japonicus; Before placing poison bait chemical)?
Its value is 153.
